The values below come from patent US6673578B1, “Method for synthesizing DNA” (Takara Shuzo Co., Ltd., priority 1998, dated 2004).

What all share (assay type): biochemical
The target in assay [1] is T1, TaKaRa Taq DNA polymerase (Thermus aquaticus, UniProt P19821).
T1 construct: purchased Takara Shuzo Co., Ltd
As to the kind of experiment: Effects of acidic substances on TaKaRa Taq DNA polymerase, PCR of 8 kb fragment (Example 5(2)). The following applies: 10 U TaKaRa Taq, 100 pg λDNA, 25 μl, 30 cycles 98°C 5 s-68°C 3 min, added 0.25 ng polysaccharide-F, 0.25 ng dextran sulfate or 0.5 μg sodium alginate. Also noted: key: ++: Intensive amplification being observed; +: Amplification being observed; ±: Slight amplification being observed; −: No amplification being observed. The source says: Using as acidic substances the sulfated-fucose-containing polysaccharide-F obtained by the process described in Item (1) of Example 5, dextran sulfate powder (manufactured by Onco), or sodium alginate (100 to 150 centipoises, manufactured by Wako Pure Chemicals), the effects of these acidic substances on the activity of TaKaRa Taq DNA polymerase (manufactured by Takara Shuzo Co., Ltd.) were examined.
A PCR reagent mixture comprising λDNA as a template, primers λ1 and λ7 as a primer pair and TaKaRa Taq DNA polymerase as a DNA polymerase was prepared, and PCR was carried out. The PCR reagent mixture was prepared so as to have the following composition.
Buffer for TaKaRa Taq DNA polymerase, 10 U of TaKaRa Taq DNA polymerase, 100 pg of λDNA, 0.2 mM each of DATP, dCTP, dGTP and dTTP, and 5 pmol each of primers λ1 and λ7 (final volume being 25 μl). Further, 0.25 ng of the sulfated-fucose-containing polysaccharide-F, 0.25 ng of dextran sulfate powder, or 0.5 μg of sodium alginate were added as acidic substances to the above PCR reagent mixture.
The reaction was carried out in 30 cycles for a total time period of PCR of about 110 minutes, wherein one cycle of reaction comprises a process consisting of 98° C., 5 seconds-68° C., 3 minutes. […]

Assay [2] relates to Polymerase B. As to the kind of experiment: Rapid PCR by combination of Polymerase B with acidic substance, 12 kb fragment (Example 6(2)). Also noted: key: + to +++: Extent of amplification is shown in 3 grades.; + to +++: Extent of amplification is shown in 3 grades.; + to +++: Extent of amplification is shown in 3 grades. The following applies: 0.5 μl Polymerase B, 10 pg λDNA, 25 μl, 30 cycles 98°C 5 s-68°C 3 min, added 0.75 ng polysaccharide-F or 5 μg sodium alginate. How it is done:
A PCR reagent mixture comprising λDNA as a template and primers λ1 and λ9 as a primer pair was prepared, and PCR was carried out. The composition for a PCR reagent mixture is as follows.
Buffer for TaKaRa EX Taq DNA polymerase, 0.2 mM each of dATP, dCTP, dGTP and dTTP, 10 pg of λDNA, 0.5 μl of Polymerase B and 5 pmol each of primers λ1 and λ9 (final volume being 25 μl). Further, 0.75 ng of sulfated-fucose-containing polysaccharide-F or 5 μg of sodium alginate was added, respectively, to the above PCR reagent mixture.
The reaction was carried out in 30 cycles, wherein one cycle of reaction comprises a process consisting of 98° C., 5 seconds-68° C., 3 minutes. After the termination of reaction, 5 μl of the resulting sample was electrophoresed on 1% agarose gel containing ethidium bromide in an amount of 0.00005%, thereby confirming an amplified fragment.

Assay [3] deals with Polymerase A. As to the kind of experiment: Rapid PCR by combination of Polymerase A with acidic substance, about 10 kb fragment (Example 6(1)). Also on record: key: ++: Intensive amplification being observed; +: Amplification being observed; ±: Slight amplification being observed; −: No amplification being observed. The following applies: 0.5 μl Polymerase A, 10 pg λDNA, 2.5 μg sodium alginate, 30 cycles 98°C 5 s-68°C 75 s. Here is the method:
(1) Rapid PCR by Combination of Polymerase A with Acidic Substance Using λDNA as template, a PCR reagent mixture comprising λDNA as a template, primers λ1 and λ8 as a primer pair was prepared, and PCR was carried out. The composition for a PCR reagent mixture is as follows.
50 mM Tris-acetate (pH 8.5), 0.2 mM each of dATP, dCTP, dGTP and dTTP, 3 mM magnesium acetate, 50 mM potassium acetate, 10 pg of λDNA, 0.5 μl of Polymerase A and 10 pmol each of primers λ1 and λ8 (final volume being 25 μl). Further, 2.5 μg of sodium alginate was added to the above PCR reagent mixture. As a control, a PCR reagent mixture without adding sodium alginate was also prepared.
Reaction Conditions: The reaction was carried out in 30 cycles, wherein one cycle of reaction comprises a process consisting of 98° C., 5 seconds-68° C., 75 seconds. The reaction was carried out in fast mode using TaKaRa PCR Thermal Cycler PERSONAL (manufactured by Takara Shuzo Co., Ltd.).
After the termination of reaction, 6 μl each of the resulting sample was electrophoresed on 1% agarose gel containing ethidium bromide in an amount of 0.00005%, thereby confirming an amplified fragment of about 10 kb.

The test system of assay [4] is Polymerase A. The experiment in a line: Combination of spergualins and acidic substances with Polymerase A, 20 kb fragment of E. coli genomic DNA (Example 8(2)). Also noted: key: ++: Intensive amplification being observed; +: Amplification being observed; ±: Slight amplification being observed; −: No amplification being observed. The following applies: No 15-deoxyspergualin/2.5 μg sodium alginate, 0.5 μl Polymerase A, 5 ng E. coli genomic DNA, 30 cycles 98°C 5 s-68°C 3 min. Here is the method: (2) The effects of the combination of spergualins and acidic substances on the DNA polymerase were studied in a case where template DNA was E. coli genomic DNA. The composition for a PCR reagent mixture is shown below.
The composition for the PCR reagent mixture was the same as that in Item (1) of Example 8, except for using 5 ng of E. coli genomic DNA (manufactured by Takara Shuzo Co., Ltd.) and 10 pmol each of primers of Eco-1 and Eco-6. To the above PCR reagent mixture was added 0.5 μl of Polymerase A, and further were added in combination 2.5 μg of sodium alginate and 15-deoxyspergualin trihydrochloride so as to have a final concentration of 1 μM, 5 μM or 10 μM, respectively, making up a final volume of 50 μl. In addition, as controls, there were respectively prepared a PCR reagent mixture in which 2.5 μg of sodium alginate was only added without adding 15-deoxyspergualin trihydrochloride, and a PCR reagent mixture in which both 15-deoxyspergualin trihydrochloride and sodium alginate were not added.
Rapid PCR was carried out in 30 cycles for a total time period of PCR of about 110 minutes, wherein one cycle of reaction comprises a process consisting of 98° C., 5 seconds-68° C., 3 minutes. […]

Assay [5] concerns λDNA. As to the kind of experiment: Effect of amount of DNA polymerase and acidic substance, PCR of 10 kb fragment (Example 7). Particulars: sodium alginate 2.5 μg added to Polymerase B; image analyzer FM-BIO. Here is the method:
A PCR reagent mixture comprising λDNA as a template and primers λ1 and λ8 as a primer pair was prepared, and PCR was carried out. In this PCR, TaKaRa EX Taq DNA polymerase and Polymerase B were used. The composition for a PCR reagent mixture is shown below.
Buffer for TaKaRa EX Taq DNA polymerase, 0.2 mM each of dATP, dCTP, dGTP and dTTP, 10 pg of λDNA, 1.25 U of TaKaRa EX Taq DNA polymerase or 0.5 μl of Polymerase B and 10 pmol each of primers λ1 and λ8 (final volume being 50 μl).
Further, to the above PCR reagent mixture was added 2.5 μg of sodium alginate, to prepare a PCR reagent mixture.
The reaction was carried out in 30 cycles for a total period for PCR of about 80 minutes, wherein one cycle of reaction comprises a process consisting of 98° C., 5 seconds-68° C., 2 minutes. After the termination of reaction, 8 μl of the resulting sample was electrophoresed on 1% agarose gel containing ethidium bromide in an amount of 0.00005%, thereby confirming an amplified fragment.

The test system of assay [6] is Polymerase B. The experiment in a line: Combination of spergualins and acidic substances with Polymerase B, 10 kb fragment of λDNA (Example 8(1)). Also noted: key: + to ++++: Extent of amplification is shown in 4 grades.; + to ++++: Extent of amplification is shown in 4 grades.; + to ++++: Extent of amplification is shown in 4 grades.; + to ++++: Extent of amplification is shown in 4 grades.; −: No amplification being observed. The following applies: No 15-deoxyspergualin/2.5 μg sodium alginate, 0.5 μl Polymerase B, 10 pg λDNA, 30 cycles 98°C 5 s-68°C 90 s. Here is the method: (1) A PCR reagent mixture comprising λDNA as a template and primers λ1 and λ8 as a primer pair was prepared, and rapid PCR was carried out. In this PCR, Polymerase B was used. As the spergualins, 15-deoxyspergualin trihydrochloride was used, and as the acidic substances, sodium alginate (manufactured by Wako Pure Chemicals) was used. The composition for a PCR reagent mixture is shown below.
50 mM Tris-acetate buffer (pH 8.5), 0.2 mM each of dATP, dCTP, dGTP and dTTP, 3 mM magnesium acetate, 50 mM potassium acetate, 10 pg of λDNA, 10 pmol each of primers λ1 and λ8. To the above PCR reagent mixture was added 0.5 μl of Polymerase B, and further 15-deoxyspergualin trihydrochloride and sodium alginate were added in combination at concentrations shown in Table 10, making up a final volume of 50 μl. In addition, as controls, there were respectively prepared a PCR reagent mixture in which 2.5 μg of sodium alginate was added without adding 15-deoxyspergualin trihydrochloride, and a PCR reagent mixture in which both 15-deoxyspergualin trihydrochloride and sodium alginate were not added.
Rapid PCR was carried out in 30 cycles for a total time period of PCR of about 65.5 minutes, wherein one cycle of reaction comprises a process consisting of 98° C., 5 seconds-68° C., 90 seconds. […]

T1 sequence (P19821 whole entry): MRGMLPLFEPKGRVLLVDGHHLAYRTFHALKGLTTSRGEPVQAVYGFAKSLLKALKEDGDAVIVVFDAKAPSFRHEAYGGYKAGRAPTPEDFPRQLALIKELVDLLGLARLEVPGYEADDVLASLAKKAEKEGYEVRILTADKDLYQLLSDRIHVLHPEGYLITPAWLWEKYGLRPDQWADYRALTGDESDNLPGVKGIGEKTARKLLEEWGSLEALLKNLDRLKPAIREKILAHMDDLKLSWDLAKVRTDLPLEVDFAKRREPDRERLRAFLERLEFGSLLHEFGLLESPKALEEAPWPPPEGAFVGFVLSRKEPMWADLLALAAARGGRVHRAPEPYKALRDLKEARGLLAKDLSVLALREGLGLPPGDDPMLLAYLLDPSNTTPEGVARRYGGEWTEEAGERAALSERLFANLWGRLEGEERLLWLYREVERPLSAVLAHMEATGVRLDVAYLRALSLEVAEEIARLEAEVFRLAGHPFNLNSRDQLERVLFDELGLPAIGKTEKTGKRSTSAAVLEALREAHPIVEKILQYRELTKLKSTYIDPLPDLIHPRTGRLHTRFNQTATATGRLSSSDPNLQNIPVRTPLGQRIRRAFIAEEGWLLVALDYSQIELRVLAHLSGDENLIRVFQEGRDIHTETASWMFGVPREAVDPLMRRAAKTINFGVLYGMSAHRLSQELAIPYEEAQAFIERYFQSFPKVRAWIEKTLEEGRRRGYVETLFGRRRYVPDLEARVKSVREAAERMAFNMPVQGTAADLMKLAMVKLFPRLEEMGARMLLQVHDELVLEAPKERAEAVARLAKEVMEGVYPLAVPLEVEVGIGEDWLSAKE

Turning to “dextran sulfate [Dextran Sulfate Powder]”, in assay [1], the “Amplification Results” value is given as “++”.

For the substance sodium alginate, the “Amplification Results” value in assay [2] is reported as “+++”; in assay [3], “++”; in assay [4] it was “±”; in assay [1], “++”; in assay [6], “+”. Also, the “Amount of the amplified product compared to the case where no sodium alginate was added” value in assay [5] is “about five times”.
